{
  "source": "paper PMC12380353",
  "about": "“MK-8527 is a novel inhibitor of HIV-1 reverse transcriptase translocation with potential for extended-duration dosing” (PLOS Biology, 2025)",
  "key": {"[1]": {"test_system": "HIV-1", "assay": "Single-cycle antiviral assay in PBMCs", "type": "cell-based", "description": "To evaluate the ability of inhibitors to prevent HIV-1 infection in primary cells, human PBMCs obtained from Biological Specialty Corporation (Colmar, PA, USA) were used to assess antiviral activity. The proviral variants used for these studies were generated by site-directed mutagenesis in a proviral vector derived from NL43 [52] that encodes GFP (pNLG1-P2A-GFP). Virus was produced by transfection in 293T cells.\nPBMCs were activated with phytohemagglutinin (PHA) at 5 μg/mL in Roswell Park Memorial Institute (RPMI) 1640 medium containing 10% heat-inactivated fetal bovine serum (FBS) for 2–3 days. Compound plates were prepared by dispensing compounds dissolved in DMSO into 384-well poly-d-lysine-coated plates (0.2 μL per well) using an Echo acoustic dispenser (Labcyte; San Jose, CA, USA). Each compound was tested in a 10-point serial 3-fold dilution (typical final concentrations: 5,000 to 0.1 nM). Controls included no inhibitor (DMSO only) and a combination of 3 antiviral agents, efavirenz, indinavir, and the integrase strand transfer inhibitor, L-002254051, at final concentrations of 4 μM each. PHA-activated human PBMCs were washed and resuspended in RPMI 1640 containing 10% NHS and 30 units per mL of interleukin-2 (IL-2) at 6 × 10^5 cells per mL. PBMCs were added to the compound plates and cultured for 24 h at 37 °C, 5% CO2, and 90% humidity. The appropriate HIV-1 variant was added to the PBMCs and cultured at 37 °C, 5% CO2, and 90% humidity for an additional 24 h.\nHIV-1–infected cells were quantified by counting the number of GFP cells in each well using an Acumen eX3 scanner (SPT Labtech; Melbourn, UK)."}, "[2]": {"test_system": "HIV-1", "assay": "Multicycle antiviral assay in MT4-GFP cells", "type": "cell-based", "conditions": "10% NHS", "description": "Compounds were evaluated for their ability to prevent HIV-1 infection in MT4-GFP cells as described in Diamond, and colleagues. HIV-1 replication was monitored using the MT4-gag-GFP clone D3, and MT4 cells with a GFP reporter gene, the expression of which is dependent on the HIV-1 expressed proteins tat and rev. […] Proviral variants used for these studies were generated by site-directed mutagenesis in the WT R8 proviral plasmid. Virus was produced by transfection in 293T cells.\nBriefly, MT4-GFP cells were cultured overnight with the appropriate HIV-1 variant at an approximate multiplicity of infection of 0.01. After approximately 19 h of infection, the cells were washed and resuspended in assay media containing 10% normal human serum (NHS) before being added to 384-well compound plates containing 10-point serial 3-fold dilutions of compound. Controls included no inhibitor (dimethyl sulfoxide [DMSO] only) and a combination of 3 antiviral agents, efavirenz, indinavir, and an integrase strand transfer inhibitor, L-002254051, at final concentrations of 4 µM each. The infected or treated cells were cultured at 37 °C, 5% CO2, and 90% humidity until evaluation of infection was conducted at approximately 48 and 72 h post-infection by counting the number of GFP cells in each well using an Acumen eX3 scanner (SPT Labtech; Melbourn, UK). The reproductive ratio, R, was calculated by dividing the number of infected cells at 72 h by the number at 48 h post-infection. The percentage inhibition caused by a test compound was calculated by the following formula:\ninhibition = [1−(Rtest compound − Rpositive control)]/(RDMSO only − Rpositive control) × 100%\\]\nThe dose–response curves of each test compound were plotted as percentage inhibition versus the test concentration."}, "[3]": {"assay": "CellTiter-Glo (CTG) cytotoxicity in MT4-GFP cells", "conditions": "human"}, "[4]": {"test_system": "HIV-1", "assay": "microbe, parasite or virus in culture", "conditions": "for IC50: Human immunodeficiency virus 1, PBMC", "description": "IC50 values were determined, and a persistence ratio was calculated for each compound. GFP, green fluorescent protein; hpi, hours post-infection; IC50, half maximal inhibitory concentration.\nAssay media in each well were then evacuated and the cells resuspended using the gentle setting on the BlueWasher (BlueCatBio; Lebanon, NH, USA). Centrifugation and wash steps were repeated to ensure removal of extracellular compound.\nMT4-GFP cells were infected with WT R8 virus, and PBMCs were infected with pNLG1-P2A-GFP. […] IC50 values were determined by nonlinear 4-parameter curve fitting of the data. A persistence ratio was calculated for each compound by dividing the IC50 from variable B (IC50B) by the IC50 from variable A (IC50A)."}, "[5]": {"test_system": "HIV-1", "conditions": "HIV-1, PBMCs; read-out: PBMC IC50; cited from earlier work"}, "[6]": {"test_system": "HIV-1", "assay": "microbe, parasite or virus in culture"}, "[7]": {"target": "T1, HIV RT (Human immunodeficiency virus type 1 group M subtype B, UniProt P04585)", "T1 construct": "HIV RT (final concentration, 1,200 nM)", "assay": "Iron footprinting assay of RT translocation state", "type": "biochemical", "conditions": "1 µM MK-8527-TP or ISL-TP, 5 µM ddATP; absence or presence of dTTP", "description": "The translocation state of RT was assessed with a site-specific iron footprinting assay adapted from previous work. Primer and template used for this assay are described in Fig 7A. The presence of Fe^2+ ions in the reaction generated hydroxyl radicals that cleaved the DNA template in a site-specific manner at the nucleotide closest to the RNase H active site. In addition to an RT inhibitor in the reaction, dTTP, the subsequent dNTP, was provided in dose titration to force the translocation of the 3′-primer terminus from the pre-translocation N-site to the post-translocation P-site.\n(final concentration, 1 µM), or ddATP (final concentration, 5 µM), Td43/Pd30 pre-annealed primer and template (final concentration, 200 nM based on Cy3-labeled Td43 concentration), and dTTP titrated at various concentrations. All reagent stocks were in a base assay buffer consisting of 120 mM Tris pH 7.5, 20 mM NaCl, and 6 mM MgCl2 in nuclease-free water. […] The reaction was then heated to 37 °C for 5 min before quenching 1:1 with gel-loading dye followed by heating at 95 °C for 10 min. Samples were stored at −20 °C until being resolved by polyacrylamide gel electrophoresis with 7 M urea."}, "[8]": {"target": "T1, HIV RT", "assay": "HIV-RT primer extension assay (chain termination)", "type": "biochemical", "conditions": "1 µM each dNTP", "description": "The reaction protocol was adapted from previous work. Primers and template used for this assay are described in Fig 8A.\nAll reagent stocks were in a base assay buffer consisting of 50 mM Tris pH 7.5 and 50 mM NaCl in nuclease-free water. […] Samples were then heated to 95 °C for 10 min prior to storage at −20 °C until being resolved by polyacrylamide gel electrophoresis with 7 M urea."}, "[9]": {"test_system": "MT4-GFP cells", "assay": "CellTiter-Glo (CTG) cytotoxicity in MT4-GFP cells", "conditions": "read-out: MT4-GFP CTG CC50, CellTiter-Glo"}, "[10]": {"test_system": "HIV-1"}, "[11]": {"conditions": "Human immunodeficiency virus 1, PBMC, read-out: PBMC IC50, HIV-1, single-cycle assay, human PBMCs, 10% NHS"}, "[12]": {"conditions": "Human immunodeficiency virus 1, WT HIV-1, multicycle assay"}, "[13]": {"conditions": "HIV-1, single-cycle assay, human PBMCs, 10% NHS, read-out: PBMC IC50"}},
  "note": "Where “and” joins values, the source holds several entries; their conditions need not be identical. Identical values can stand only once. Like-named read-outs stand apart in the source and are kept apart here.",
  "data": [
    {"compound": "C#C[C@]1(CO)O[C@@H](n2nnc3c(N)ncnc32)C[C@@H]1O", "note": "[Compound 15, (2R,3S,5R)-5-(7-amino-3H-[1,2,3]triazolo[4,5-d]pyrimidin-3-yl)-2-ethynyl-2-(hydroxymethyl)tetrahydrofuran-3-ol]", "values": [
      {"measurement": "IC50", "setting": "[1]; [11]", "result": 7570, "unit": "nM"},
      {"measurement": "IC50", "setting": "[2]; [12]", "result": 7590, "unit": "nM"},
      {"measurement": "MT4-GFP IC50", "setting": "[2]; WT HIV-1, multicycle assay", "result": "completely inactive"},
      {"measurement": "CC50", "setting": "[3]", "result": "> 42000", "unit": "nM"}
    ]},
    {"compound": "C#C[C@]1(CO)O[C@@H](c2ccc3c(N)ncnn23)C[C@@H]1O", "note": "[Compound 16, (2R,3S,5R)-5-(4-aminopyrrolo[2,1-f][1,2,4]triazin-7-yl)-2-ethynyl-2-(hydroxymethyl)tetrahydrofuran-3-ol]", "values": [
      {"measurement": "IC50", "setting": "[1]; [11]", "result": 19.2, "unit": "nM"},
      {"measurement": "IC50", "setting": "[2]; [12]", "result": 21.6, "unit": "nM"},
      {"measurement": "CC50", "setting": "[3]", "result": 22300, "unit": "nM"}
    ]},
    {"compound": "C#CC1(CO)CC(n2cnc3c(N)nc(F)nc32)CC1O", "note": "(centres unmarked) [Compound 17, 4-(6-amino-2-fluoro-9H-purin-9-yl)-2-ethynyl-2-(hydroxy-methyl)cyclopentan-1-ol]", "values": [
      {"measurement": "IC50", "setting": "[1]; [11]", "result": 383, "unit": "nM"},
      {"measurement": "IC50", "setting": "[2]; [12]", "result": 5020, "unit": "nM"},
      {"measurement": "CC50", "setting": "[3]", "result": "> 42000", "unit": "nM"}
    ]},
    {"compound": "C#CC1(CO)CC(n2cnc3c(N)nc(Cl)nc32)CC1O", "note": "(centres unmarked) [Compound 18, 4-(6-amino-2-chloro-9H-purin-9-yl)-2-ethynyl-2-(hydroxy-methyl)-cyclopentan-1-ol]", "values": [
      {"measurement": "IC50", "setting": "[1]; [11]", "result": 982, "unit": "nM"},
      {"measurement": "IC50", "setting": "[2]; [12]", "result": 22700, "unit": "nM"},
      {"measurement": "CC50", "setting": "[3]", "result": "> 42000", "unit": "nM"}
    ]},
    {"compound": "C#C[C@]1(CO)C[C@@H](n2ccc3c(N)nc(Cl)nc32)C[C@@H]1O", "note": "[Compound 19, (1S,2S,4R)-4-(4-amino-2-chloro-7H-pyrrolo[2,3-d]pyrimidin-7-yl)-2-ethynyl-2-(hydroxymethyl)cyclopentan-1-ol]", "values": [
      {"measurement": "IC50", "setting": "[1]; [11]", "result": 1160, "unit": "nM"},
      {"measurement": "IC50", "setting": "[2]; [12]", "result": 22600, "unit": "nM"},
      {"measurement": "CC50", "setting": "[3]", "result": "> 42000", "unit": "nM"}
    ]},
    {"compound": "C#C[C@]1(CO)C[C@@H](n2cnc3c(=O)[nH]c(N)nc32)C[C@@H]1O", "note": "[Compound 20, 2-amino-9-((1R,3S,4S)-3-ethynyl-4-hydroxy-3-(hydroxymethyl)-cyclopentyl)-1,9-dihydro-6H-purin-6-one]", "values": [
      {"measurement": "IC50", "setting": "[1]; [11]", "result": 20.4, "unit": "nM"},
      {"measurement": "IC50", "setting": "[2]; [12]", "result": 103, "unit": "nM"},
      {"measurement": "CC50", "setting": "[3]", "result": "> 42000", "unit": "nM"}
    ]},
    {"compound": "C#C[C@]1(CO)O[C@@H](n2cnc3c(N)nc(F)nc32)C[C@@H]1O", "note": "[ISL, 4′-ethynyl-2-fluoro-2′-deoxyadenosine, reference compound]", "values": [
      {"measurement": "IC50", "setting": "[4]; 48 h, read-out: Persistence assay IC50B, PBMCs", "result": "39.7 ± 23.9", "unit": "nM"},
      {"measurement": "IC50", "setting": "[4]; read-out: Persistence assay IC50A, PBMCs", "result": "0.8 ± 0.48", "unit": "nM"},
      {"measurement": "IC50", "setting": "[5]", "result": "0.2 nM and 0.23 nM"},
      {"measurement": "IC50", "setting": "[6]; Human immunodeficiency virus 1, 48 h, read-out: Persistence assay IC50B, MT4-GFP cells", "result": "25.5 ± 9.96", "unit": "nM"},
      {"measurement": "IC50", "setting": "[6]; Human immunodeficiency virus 1, read-out: Persistence assay IC50A, MT4-GFP cells", "result": "0.89 ± 0.63", "unit": "nM"},
      {"measurement": "CC50", "setting": "[3]", "result": "> 42000", "unit": "nM"}
    ]},
    {"compound": "Nc1ncnc2c1ncn2[C@H]1CC[C@@H](CO[P@@](=O)(O)O[P@](=O)(O)OP(=O)(O)O)O1", "note": "[ddATP, dideoxyadenosine triphosphate, reference compound]", "values": [
      {"measurement": "Translocation state of RT", "setting": "[7]", "result": "mostly in the post-translocation state"},
      {"measurement": "Chain termination mechanism (ICT/DCT)", "setting": "[8]", "result": "only inhibits via ICT"}
    ]},
    {"compound": "(2R,3S,5R)-5-(4-amino-5-fluoro-7H-pyrrolo[2,3-d]pyrimidin-7-yl)-2-ethynyl-2-(hydroxymethyl)tetrahydrofuran-3-ol [Compound 9]", "values": [
      {"measurement": "IC50", "setting": "[1]; [13]", "result": 3410, "unit": "nM"},
      {"measurement": "IC50", "setting": "[2]; WT HIV-1, multicycle assay", "result": 37200, "unit": "nM"},
      {"measurement": "CC50", "setting": "[9]", "result": "> 42000", "unit": "nM"}
    ]},
    {"compound": "(2R,3S,5R)-5-(4-amino-5-methyl-7H-pyrrolo[2,3-d]pyrimidin-7-yl)-2-ethynyl-2-(hydroxymethyl)tetrahydrofuran-3-ol [Compound 8]", "values": [
      {"measurement": "IC50", "setting": "[1]; [13]", "result": 58.8, "unit": "nM"},
      {"measurement": "Persistence ratio (PBMC)", "setting": "[4]; IC50B/IC50A, PBMCs", "result": 18},
      {"measurement": "IC50", "setting": "[2]; WT HIV-1, multicycle assay", "result": 85.4, "unit": "nM"},
      {"measurement": "Persistence ratio (MT4-GFP)", "setting": "[10]", "result": 6},
      {"measurement": "CC50", "setting": "[9]", "result": 38800, "unit": "nM"}
    ]}
  ]
}
